Consider six compounds from PubChem BioAssay (NCI).

Structures are written as SMILES.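 48-hour exposure; five concentrations; linearly interpolated endpoints. GI50 = concentration required for 50% inhibition of growth. TGI denotes the concentration required for complete inhibition of growth.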

One may read the GI50 as the concentration giving 50% growth inhibition. For orientation: TGI means the concentration at which net growth stops. A higher TGI goes with lower sensitivity of the cells.

The subject of the first assay is U251 CNS. As to the kind of experiment: DTP human tumour cell line panel, 48 h.
Consider `Cn1cc(C2=C(c3c4n(c5ccccc35)CCCCC4)C(=O)NC2=O)c2ccccc21`, for which the GI50 is 6.61 µM and the TGI was above 25 µM.
The matching figures for `Cc1ccnc2c1ccc1c(C)ccnc12`: 0.419 µM and 11.5 µM.
The matching figures for `NS(=O)(=O)OC[C@@H]1C[C@@H](n2ccc3c(NC4CCc5ccccc54)ncnc32)C[C@@H]1O` (stereo partly drawn): 0.559 µM and 36.9 µM.
In the case of `O=C1/C(=C/c2ccc(O)c(O)c2)CCC/C1=C\c1ccc(O)c(O)c1`, the TGI turned out to be 15.7 µM.
Turning to `Nc1ccccc1C#C/C=C\C#Cc1ccccc1OC(F)(F)F`, the GI50 was 5.44 µM and the TGI turned out to be 22.2 µM.
The matching figures for `CN1CCCCC1CCN1c2ccccc2Sc2ccc(Cl)cc21` (stereo not drawn): 2.59 µM and 6.76 µM.

Another assay deals with SNB-75 CNS. Put plainly: DTP human tumour cell line panel, 48 h.
On to `Cn1cc(C2=C(c3c4n(c5ccccc35)CCCCC4)C(=O)NC2=O)c2ccccc21`, for which the GI50 was 1.4 µM and the TGI was 11.6 µM.
As to `Cc1ccnc2c1ccc1c(C)ccnc12`, the GI50 is 0.84 µM and the TGI worked out at 14.6 µM.
For the compound `NS(=O)(=O)OC[C@@H]1C[C@@H](n2ccc3c(NC4CCc5ccccc54)ncnc32)C[C@@H]1O` (stereo partly drawn), the GI50 is 20.8 µM and the TGI was above 100 µM.
Regarding `O=C1/C(=C/c2ccc(O)c(O)c2)CCC/C1=C\c1ccc(O)c(O)c1`, the TGI came to 12.9 µM.
In the case of `Nc1ccccc1C#C/C=C\C#Cc1ccccc1OC(F)(F)F`, the GI50 was 2.47 µM and the TGI amounted to 7.85 µM.
For `CN1CCCCC1CCN1c2ccccc2Sc2ccc(Cl)cc21` (stereo not drawn) the same measures were 1.54 µM and 6.19 µM.

Another assay relates to DU-145 prostate. Put plainly: DTP human tumour cell line panel, 48 h.
For `Cn1cc(C2=C(c3c4n(c5ccccc35)CCCCC4)C(=O)NC2=O)c2ccccc21`, the GI50 is 5.4 µM and the TGI is above 17.3 µM.
The matching figures for `Cc1ccnc2c1ccc1c(C)ccnc12`: 0.501 µM and 14.2 µM.
For `NS(=O)(=O)OC[C@@H]1C[C@@H](n2ccc3c(NC4CCc5ccccc54)ncnc32)C[C@@H]1O` (stereo partly drawn) the same measures were 0.384 µM and above 100 µM.
The compound `O=C1/C(=C/c2ccc(O)c(O)c2)CCC/C1=C\c1ccc(O)c(O)c1` showed a TGI of 17.5 µM.
With `Nc1ccccc1C#C/C=C\C#Cc1ccccc1OC(F)(F)F`, the GI50 is 4.81 µM and the TGI turned out to be 29.9 µM.
With `CN1CCCCC1CCN1c2ccccc2Sc2ccc(Cl)cc21` (stereo not drawn), the GI50 was 5.5 µM and the TGI worked out at 17.6 µM.

The subject of the next assay is SNB-19 CNS. As to the kind of experiment: DTP human tumour cell line panel, 48 h.
Regarding `Cn1cc(C2=C(c3c4n(c5ccccc35)CCCCC4)C(=O)NC2=O)c2ccccc21`, the GI50 is above 18.1 µM and the concentration for total growth inhibition (TGI) was above 25 µM.
With `Cc1ccnc2c1ccc1c(C)ccnc12`, the GI50 is 0.592 µM and the TGI was 13.9 µM.
The matching figures for `NS(=O)(=O)OC[C@@H]1C[C@@H](n2ccc3c(NC4CCc5ccccc54)ncnc32)C[C@@H]1O` (stereo partly drawn): 12.5 µM and above 100 µM.
Regarding `O=C1/C(=C/c2ccc(O)c(O)c2)CCC/C1=C\c1ccc(O)c(O)c1`, the TGI was 29.1 µM.
`Nc1ccccc1C#C/C=C\C#Cc1ccccc1OC(F)(F)F`: the GI50 was 2.55 µM and the TGI is 9.72 µM.
Regarding `CN1CCCCC1CCN1c2ccccc2Sc2ccc(Cl)cc21` (stereo not drawn), the GI50 is 6.7 µM and the TGI was 21.5 µM.

The test system of another assay is NCI-H522 lung. As to the kind of experiment: DTP human tumour cell line panel, 48 h.
With `Cn1cc(C2=C(c3c4n(c5ccccc35)CCCCC4)C(=O)NC2=O)c2ccccc21`, the GI50 was 1.02 µM and the TGI is 8.14 µM.
Turning to `Cc1ccnc2c1ccc1c(C)ccnc12`, the GI50 is 0.608 µM and the TGI is 4.97 µM.
The matching figures for `NS(=O)(=O)OC[C@@H]1C[C@@H](n2ccc3c(NC4CCc5ccccc54)ncnc32)C[C@@H]1O` (stereo partly drawn): 3.31 µM and 27.3 µM.
`O=C1/C(=C/c2ccc(O)c(O)c2)CCC/C1=C\c1ccc(O)c(O)c1` registered a TGI of 2.22 µM.
`Nc1ccccc1C#C/C=C\C#Cc1ccccc1OC(F)(F)F`: the GI50 is 3.47 µM and the TGI worked out at 14 µM.
The matching figures for `CN1CCCCC1CCN1c2ccccc2Sc2ccc(Cl)cc21` (stereo not drawn): 2.31 µM and 7.37 µM.

A further assay deals with COLO 205 colon. Put plainly: DTP human tumour cell line panel, 48 h.
For the compound `Cn1cc(C2=C(c3c4n(c5ccccc35)CCCCC4)C(=O)NC2=O)c2ccccc21`, the GI50 is 4.56 µM and the TGI is above 18.8 µM.
For `Cc1ccnc2c1ccc1c(C)ccnc12`, the GI50 was 0.568 µM and the TGI came out at 13 µM.
For `NS(=O)(=O)OC[C@@H]1C[C@@H](n2ccc3c(NC4CCc5ccccc54)ncnc32)C[C@@H]1O` (stereo partly drawn) the same measures were 0.524 µM and above 51.2 µM.
For `O=C1/C(=C/c2ccc(O)c(O)c2)CCC/C1=C\c1ccc(O)c(O)c1`, the TGI is above 64 µM.
As for `Nc1ccccc1C#C/C=C\C#Cc1ccccc1OC(F)(F)F`, the GI50 is 5.19 µM and the TGI came out at 28 µM.
For `CN1CCCCC1CCN1c2ccccc2Sc2ccc(Cl)cc21` (stereo not drawn) the same measures were 2.24 µM and 4.83 µM.

For the next assay, the system named is HCT-15 colon. As to the kind of experiment: DTP human tumour cell line panel, 48 h.
As to `Cn1cc(C2=C(c3c4n(c5ccccc35)CCCCC4)C(=O)NC2=O)c2ccccc21`, the GI50 was 1.69 µM and the TGI is above 25 µM.
`Cc1ccnc2c1ccc1c(C)ccnc12`: the GI50 is 0.383 µM and the TGI worked out at 10.4 µM.
The matching figures for `NS(=O)(=O)OC[C@@H]1C[C@@H](n2ccc3c(NC4CCc5ccccc54)ncnc32)C[C@@H]1O` (stereo partly drawn): 2.59 µM and 70.1 µM.
For `O=C1/C(=C/c2ccc(O)c(O)c2)CCC/C1=C\c1ccc(O)c(O)c1`, the TGI came out at 33.3 µM.
On to `Nc1ccccc1C#C/C=C\C#Cc1ccccc1OC(F)(F)F`, for which the GI50 is 4 µM and the TGI amounted to 20 µM.
Regarding `CN1CCCCC1CCN1c2ccccc2Sc2ccc(Cl)cc21` (stereo not drawn), the GI50 is 2.93 µM and the TGI was determined as 11.7 µM.

In a further assay the test system is SR leukemia. Put plainly: DTP human tumour cell line panel, 48 h.
Regarding `Cn1cc(C2=C(c3c4n(c5ccccc35)CCCCC4)C(=O)NC2=O)c2ccccc21`, the GI50 was 1.19 µM and the TGI was above 20.9 µM.
The matching figures for `Cc1ccnc2c1ccc1c(C)ccnc12`: 0.382 µM and above 100 µM.
The matching figures for `NS(=O)(=O)OC[C@@H]1C[C@@H](n2ccc3c(NC4CCc5ccccc54)ncnc32)C[C@@H]1O` (stereo partly drawn): 0.0827 µM and 29.5 µM.
For the compound `O=C1/C(=C/c2ccc(O)c(O)c2)CCC/C1=C\c1ccc(O)c(O)c1`, the concentration for total growth inhibition (TGI) is above 89.8 µM.
Consider `Nc1ccccc1C#C/C=C\C#Cc1ccccc1OC(F)(F)F`, for which the GI50 is 1.63 µM and the TGI is 13.9 µM.
With `CN1CCCCC1CCN1c2ccccc2Sc2ccc(Cl)cc21` (stereo not drawn), the GI50 is 3.2 µM.

The subject of the next assay is NCI-H226 lung. Put plainly: DTP human tumour cell line panel, 48 h.
For `Cn1cc(C2=C(c3c4n(c5ccccc35)CCCCC4)C(=O)NC2=O)c2ccccc21`, the GI50 is 12 µM and the TGI is above 25 µM.
For the compound `Cc1ccnc2c1ccc1c(C)ccnc12`, the GI50 was 0.412 µM and the TGI came to 8.21 µM.
For `NS(=O)(=O)OC[C@@H]1C[C@@H](n2ccc3c(NC4CCc5ccccc54)ncnc32)C[C@@H]1O` (stereo partly drawn), the GI50 is 0.362 µM.
The compound `O=C1/C(=C/c2ccc(O)c(O)c2)CCC/C1=C\c1ccc(O)c(O)c1` registered a TGI of 9.43 µM.
Take `Nc1ccccc1C#C/C=C\C#Cc1ccccc1OC(F)(F)F`: the GI50 is 14 µM and the TGI amounted to 40.3 µM.
For `CN1CCCCC1CCN1c2ccccc2Sc2ccc(Cl)cc21` (stereo not drawn), the GI50 is 12.9 µM and the TGI came out at 32.1 µM.

A further assay concerns NCI/ADR-RES ovarian. As to the kind of experiment: DTP human tumour cell line panel, 48 h.
For `Cn1cc(C2=C(c3c4n(c5ccccc35)CCCCC4)C(=O)NC2=O)c2ccccc21`, the GI50 is 2.17 µM and the TGI is above 25 µM.
Take `Cc1ccnc2c1ccc1c(C)ccnc12`: the GI50 was 0.204 µM and the TGI stood at 1.79 µM.
Consider `NS(=O)(=O)OC[C@@H]1C[C@@H](n2ccc3c(NC4CCc5ccccc54)ncnc32)C[C@@H]1O` (stereo partly drawn), for which the GI50 is 68.8 µM and the TGI was above 100 µM.
In turn, `O=C1/C(=C/c2ccc(O)c(O)c2)CCC/C1=C\c1ccc(O)c(O)c1` had a TGI of 23.8 µM.
Take `Nc1ccccc1C#C/C=C\C#Cc1ccccc1OC(F)(F)F`: the GI50 was 2.82 µM and the concentration for total growth inhibition (TGI) worked out at 11.1 µM.
On to `CN1CCCCC1CCN1c2ccccc2Sc2ccc(Cl)cc21` (stereo not drawn), for which the GI50 is 2.89 µM and the TGI was found to be 7.62 µM.
